This note sets out measurements from ChEMBL document CHEMBL4627370, “Discovery of δ opioid receptor full agonists lacking a basic nitrogen atom and their antidepressant-like effects” (Bioorg Med Chem Lett, 2020).

The target of test [1] is T1, Delta-type opioid receptor (Homo sapiens, UniProt P41143). Briefly: Agonist activity at human delta opioid receptor expressed in CHO cell membranes by [35S]GTPgammaS binding assay. The class given is functional. Background: Binding of GTPγS marks nucleotide exchange on a G protein.
T1 sequence (P41143 whole entry): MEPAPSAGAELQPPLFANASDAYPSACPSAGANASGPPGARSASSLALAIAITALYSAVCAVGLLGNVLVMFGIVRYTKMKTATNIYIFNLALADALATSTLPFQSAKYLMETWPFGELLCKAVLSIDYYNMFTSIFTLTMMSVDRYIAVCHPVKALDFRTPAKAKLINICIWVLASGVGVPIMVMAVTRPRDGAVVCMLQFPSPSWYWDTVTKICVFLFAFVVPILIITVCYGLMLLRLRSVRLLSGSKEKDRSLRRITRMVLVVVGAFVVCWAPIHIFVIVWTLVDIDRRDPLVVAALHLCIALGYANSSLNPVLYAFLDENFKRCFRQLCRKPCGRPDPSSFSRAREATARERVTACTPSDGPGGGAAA
The target of test [2] is Mu-type opioid receptor (Homo sapiens, UniProt P35372). Briefly: Displacement of [3H]DAMGO from human mu opioid receptor expressed in CHO cells. The class given is cell-based. For orientation: Displacement assays read how much labelled ligand stays bound in the presence of the test substance.
Sequence of Mu-type opioid receptor (P35372 whole entry): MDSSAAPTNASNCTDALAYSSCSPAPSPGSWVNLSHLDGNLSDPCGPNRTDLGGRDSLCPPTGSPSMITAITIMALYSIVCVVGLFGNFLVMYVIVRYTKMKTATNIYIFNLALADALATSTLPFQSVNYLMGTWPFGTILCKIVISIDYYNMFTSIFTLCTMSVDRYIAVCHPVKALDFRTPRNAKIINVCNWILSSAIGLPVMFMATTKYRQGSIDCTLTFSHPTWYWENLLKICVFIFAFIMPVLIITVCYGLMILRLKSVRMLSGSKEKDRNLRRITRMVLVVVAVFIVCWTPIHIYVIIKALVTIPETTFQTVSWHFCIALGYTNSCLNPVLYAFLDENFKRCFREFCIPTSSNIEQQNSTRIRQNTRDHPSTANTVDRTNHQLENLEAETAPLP
Test [3] deals with T1, Delta-type opioid receptor. Kind of test: Agonist activity at human delta opioid receptor expressed in CHO cell membranes by [35S]GTPgammaS binding assay relative to control. The class given is functional.
For test [4], the species on record is Homo sapiens. Briefly: Selectivity ratio for Ki for displacement of [3H]U69593 from human kappa opioid receptor expressed in CHO cells to Ki for displacement of [3H]DPDPE from human DOR expressed in CHO cells. The class given is cell-based.
For test [5], the target named is T1, Delta-type opioid receptor. Kind of test: Displacement of [3H]DPDPE from human delta opioid receptor expressed in CHO cells. The test is classed as cell-based.
Test [6] addresses Kappa-type opioid receptor (Homo sapiens, UniProt P41145). Kind of test: Displacement of [3H]U69593 from human kappa opioid receptor expressed in CHO cells. The test is classed as cell-based.
The species named for test [7] is Homo sapiens. Kind of test: Selectivity ratio for Ki for displacement of [3H]DAMGO from human mu opioid receptor expressed in CHO cells to Ki for displacement of [3H]DPDPE from human DOR expressed in CHO cells. The test is classed as cell-based.
The test system of test [8] is Mus musculus. Briefly: Antidepressant activity in sc dosed mouse assessed as increase in total swimming count by forced swim test. The class given is functional, organism-based.
The test system of test [9] is Mus musculus. Briefly: Antidepressant activity in sc dosed mouse assessed as increase in climbing count by forced swim test. The class given is functional, organism-based.
Test [10] relates to Mus musculus. Briefly: Antidepressant activity in sc dosed mouse assessed as decrease in total immobility count by forced swim test. The class given is functional, organism-based.
The test system of test [11] is Mus musculus. Kind of test: Antidepressant activity in mouse at 3 mg/kg, sc by forced swim test. The class given is functional, organism-based.
Test [12] addresses T1, Delta-type opioid receptor. Kind of test: Inverse agonist activity at human delta opioid receptor expressed in CHO cell membranes by [35S]GTPgammaS binding assay. The test is classed as functional.
Test [13] deals with Mus musculus. Kind of test: Antidepressant activity in mouse at 10 mg/kg, sc by forced swim tes. The test is classed as functional, organism-based.

The source made the active and inactive calls. The rule behind the calls is not given here.

Sequence of Kappa-type opioid receptor (P41145 whole entry): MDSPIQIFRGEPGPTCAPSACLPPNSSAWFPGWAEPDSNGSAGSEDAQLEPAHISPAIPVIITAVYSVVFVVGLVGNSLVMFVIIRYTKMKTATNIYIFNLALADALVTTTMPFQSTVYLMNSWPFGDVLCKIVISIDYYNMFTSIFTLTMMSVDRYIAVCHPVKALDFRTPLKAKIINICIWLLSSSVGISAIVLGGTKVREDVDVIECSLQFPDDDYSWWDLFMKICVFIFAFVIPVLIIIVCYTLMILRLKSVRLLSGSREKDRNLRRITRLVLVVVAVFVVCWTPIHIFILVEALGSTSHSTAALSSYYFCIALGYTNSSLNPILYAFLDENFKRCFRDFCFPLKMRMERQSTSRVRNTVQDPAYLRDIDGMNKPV

The molecule `O=C(Cc1ccccc1)N1CC[C@]23c4c5ccc(O)c4O[C@H]2c2[nH]c4ccccc4c2C[C@@]3(O)[C@H]1C5` yielded a 50% effective concentration (EC50) in [1] of 132 nM. Moreover, the Ki in test [2] is 8670 nM; in test [5], 41.5 nM; in test [6], 5990 nM. Besides, the Emax in [3] is 97.5%. Moreover, the Ratio Ki was 144 in [4] and 209 in test [7].

Take `O=C(Cc1ccccc1)N1CC[C@]23Cc4nc5ccccc5cc4C[C@@]2(O)[C@H]1Cc1ccc(O)cc13`: the Activity result in test [8], in test [9] and in [10] was “Dose-dependent effect” throughout. Further, in test [1], the midpoint of the response, the EC50, lay at 14.4 nM. For the same molecule, the Emax in test [3] is 125%. Further, the Ki in test [5] was found to be 26 nM. For the same molecule, in test [11], the outcome was Active.

`COC1=CC=C2C[C@H]3N(C(=O)C4CC4)CC[C@]45C2C1O[C@H]4c1[nH]c2ccccc2c1C[C@@]35O` (stereo partly specified): the response in test [12] was half-maximal at 322 nM (EC50). That is a sub-micromolar value.

In test [1], `O=C(CCc1ccccc1)N1CC[C@]23Cc4nc5ccccc5cc4C[C@@]2(O)[C@H]1Cc1ccc(O)cc13` showed an EC50 of 10.4 nM. Moreover, the figures for the Ki in test [2] and in test [5] were 1790 nM and 4.17 nM, respectively. The molecule also displayed an Emax in [3] of 123%. Moreover, in test [7], the Ratio Ki is 430.

In test [1], `O=C(CCc1ccccc1)N1CC[C@]23c4c5ccc(O)c4O[C@H]2c2[nH]c4ccccc4c2C[C@@]3(O)[C@H]1C5` registered a concentration for a half-maximal effect (EC50) of 127 nM. Besides, the figures for the Ki in [2], in [5] and in test [6] were 3480 nM, 89 nM and 2150 nM, respectively. The same molecule showed a maximal effect (Emax) in test [3] of 88.5%. For the same molecule, the Ratio Ki in test [4] stood at 24.2; in test [7], 39.2.

Take `CN1CC[C@]23Cc4nc5ccccc5cc4C[C@@]2(O)[C@H]1Cc1ccc(O)cc13`: the Activity entry in test [8], in test [9] and in [10] was “Dose-dependent effect” each time. Further, in [13], the result was Active.

As a reminder, the EC50 is the concentration that produces a half-maximal response. Read a low EC50 as a more potent agent. In general, Ki refers to a dissociation constant, usually derived from enzyme kinetics or from competition with a known ligand. Low readings indicate higher affinity, high ones lower affinity. Broadly, the Emax is the size of the effect at its maximum, as opposed to the concentration needed.
